Measured values reported in US20210040054A1, “Substituted Hydrophobic Benzene Sulfonamide Thiazole Compounds for Use in Treating Cancer” (INSERM (Institut National de la Sante et de la Recherche …, priority 2015, published 2021).
“Also recorded” adds a separate entry of the source.

Tests used:
Assay type in all cases: cell-based
A375 melanoma cells = assay: Cell viability, trypan blue exclusion cell counting (FIG. 1); settings: compared to reference compound Ia-1
Experimental: (§1) Different melanoma cell lines were purchased from American Tissue Culture Collection (Molsheim, France). Cells were grown in RPMI 1640 (A375, WM9 and patient melanoma cells) or in DMEM medium (Mel501) supplemented with 10% FCS and penicillin/streptomycin (100 U/ml/[…]) at 37° C. and 5% CO2.
(§2) Cells were seeded in 6-well plates (60000 cells/well), depleted and incubated with compounds for the times indicated. Then cells were detached in the presence of 200 μl of HyQTase (Thermo) and 2 ml of RPMI 1640 Glutamax (Gibco) was added to the cell solution. 10 μl of this solution was stained for 1 minute with 10 μl of 0.4% trypan blue before counting with a Malassez chamber.
(§3) FIG. 1: the Effect of Compounds Ia-7, IIIa-3, IIIa-1, IIIa-2, 11a-2, 11a-9, Ia-4, Ha-11, IIa-12, IIa-6, Compared to Ia-1, on Cell Viability on A375 Melanoma Cells. Cell viability was assessed by measuring the number of cells alive in samples of different cells. The measure of cell viability as performed by cell counting using the trypan blue exclusion method. Results were expressed as the percentage of cells alive relatively to the number of living cells in the presence of DMSO, which corresponds to the negative control associated to the 100% value. […] The very active compounds IIa-2, IIIa-1 and IIIa-3 substituted in para position respectively with an octyne, hexyl and octyl chain, were selected to investigate their potential to promote cell death on resistant melanoma cell lines as well as other cancer cell lines. FIG. 2a. Effect of Compounds 11a-2, IIIa-1 and IIIa-3 on Cell Viability on Melanoma Cells. PLX4032 was Used as a Positive Control. […] FIG. 2b. Effect of Compounds IIa-2, IIIa-1 and IIIa-3 on Cell Viability on CML Cells. Imatinib was Used as a Positive Control. The activity of compounds IIa-2, IIIa-1 and IIIa-3 against CML cells was also evaluated. […] FIG. 2c. […] The compounds IIa-2, IIIa-1 and IIIa-3 were next evaluated against pancreatic cells, BxPC3 (sensitive) and MiaPACA cell lines (resistant to the nucleoside analog Gemcitabine).

[1] = tested on: sensitive melanoma cell lines; assay: Cell viability on sensitive melanoma cell lines (FIG. 2a); settings: 10 μM
Experimental: as §1, §2, §3

[2] = tested on: resistant A375 R5C3 an A375 RIV cell lines; assay: Cell viability on resistant melanoma cell lines (FIG. 2a); settings: resistant A375 R5C3 and A375 RIV cell lines; 10 μM
Experimental: as §1, §2
(§4) FIG. 1: the Effect of Compounds Ia-7, IIIa-3, IIIa-1, IIIa-2, 11a-2, 11a-9, Ia-4, Ha-11, IIa-12, IIa-6, Compared to Ia-1, on Cell Viability on A375 Melanoma Cells. Cell viability was assessed by measuring the number of cells alive in samples of different cells. The measure of cell viability as performed by cell counting using the trypan blue exclusion method. Results were expressed as the percentage of cells alive relatively to the number of living cells in the presence of DMSO, which corresponds to the negative control associated to the 100% value. […] The very active compounds IIa-2, IIIa-1 and IIIa-3 substituted in para position respectively with an octyne, hexyl and octyl chain, were selected to investigate their potential to promote cell death on resistant melanoma cell lines as well as other cancer cell lines. FIG. 2a. Effect of Compounds 11a-2, IIIa-1 and IIIa-3 on Cell Viability on Melanoma Cells. PLX4032 was Used as a Positive Control. […] FIG. 2b. Effect of Compounds IIa-2, IIIa-1 and IIIa-3 on Cell Viability on CML Cells. Imatinib was Used as a Positive Control. The activity of compounds IIa-2, IIIa-1 and IIIa-3 against CML cells was also evaluated. […] FIG. 2c. Effect of Compounds IIa-2, IIIa-1 and IIIa-3 on Cell Viability on Pancreatic Cancer Cells. Gemcitabine was Used as a Positive Control. The compounds IIa-2, IIIa-1 and IIIa-3 were next evaluated against pancreatic cells, BxPC3 (sensitive) and MiaPACA cell lines (resistant to the nucleoside analog Gemcitabine).

sensitive K562 CML cells = assay: Cell viability on sensitive CML cells (FIG. 2b); settings: compared with Imatinib
Experimental: as §2, §4

resistant K562 cells = assay: Cell viability on resistant CML cells (FIG. 2b); settings: compared with Imatinib
Experimental: as §2, §4

BxPC3 (sensitive) = assay: Cell viability on sensitive pancreatic cancer cells (FIG. 2c); settings: compared with Gemcitabine
Experimental: as §2, §4

human normal melanocytes = assay: Viability of normal melanocytes (FIG. 3); settings: different concentration of IIa-2
Experimental: Normal human melanocytes (NHM) prepared from foreskins of newborns were grown under 5% CO2 at 37° C. in MCDB 153 (Sigma) supplemented with 2% FCS, bovine pituitary extract (10 μg/ml), PMA (8 nM), bFGF (1 ng/ml), insulin (5 μg/ml), hydrocortisone (0.5 μg/ml), forskolin (10 μM), gentamicin (20 μg/ml), penicillin/streptomycin/amphotericin B (100 U/ml) (Invitrogen).
as §2
(§5) Primary cell cultures of human normal melanocytes were prepared from human foreskin. In order to determine the effect of compound IIa-2 on cell viability of melanocytes and fibroblasts, different concentration of IIa-2 were added to the cell samples. The measure of cell viability was performed in the same way as for FIG. 1. Results are expressed as the percentage of living cells relatively to the number of living cells in the presence of DMSO, as for FIG. 1.

Normal human fibroblasts = assay: Viability of normal fibroblasts (FIG. 3); settings: different concentration of IIa-2
Experimental: Normal human fibroblasts prepared from foreskins of newborns were grown under 5% CO2 at 37° C. in DMEM medium supplemented with 10% FCS and penicillin/streptomycin (100 U/ml/[…]).
as §2, §5

A375 melanoma cell line = assay: Western blot, mechanism of death: PARP cleavage (apoptosis) and LCII/LCIII conversion (autophagy) (FIG. 4); settings: IIa-2 at 10 μM
Experimental: Proteins were extracted in Fisher buffer containing TRIS-HCl pH 7.5 50 mM, NaCl 15 mM, Triton X-100 1% and proteases and phosphatases inhibitors. Briefly, cell lysates (30 μg) were separated by SDS-PAGE, transferred onto a PVDF membrane (Millipore, Molsheim, France) and then exposed to the appropriate antibodies. Proteins were visualized with the ECL system from Amersham (Arlington, Heights, Ill., USA). The western blots shown are representative of at least 3 independent experiments.

[3] = tested on: MiaPACA cell lines (resistant to the nucleoside analog Gemcitabine); assay: Cell viability on Gemcitabine-resistant pancreatic cancer cells (FIG. 2c)
Experimental: as §2, §4

In the case of `CCCCCCC#Cc1ccc(S(=O)(=O)Nc2cccc(-c3csc(NC(C)=O)n3)c2)cc1` [IIa-2, N-(4-(3-((4-(oct-1-yn-1-yl)phenyl)sulfonamido)phenyl)thiazol-2-yl)acetamide], the “cell viability (percentage of cells alive relatively to DMSO)” value (A375 melanoma cells) is reported as “very active”, the cell viability [1] is reported as “strong activity” and the cell viability [2] is reported as “strong activity”. The cell viability (sensitive K562 CML cells) was “viability decrease in the same range than the standard BCR-ABL inhibitor Imatinib”, the cell viability (resistant K562 cells) was “much more active; also recorded: almost total mortality” and the cell viability (BxPC3 (sensitive)) was “very high activity; also recorded: total cell death”. The “cell viability of normal cells (percentage of living cells relatively to DMSO)” value (human normal melanocytes) was “no effect”, the “cell viability of normal cells (percentage of living cells relatively to DMSO)” value (Normal human fibroblasts) was “no effect” and the “mechanism of death: PARP cleavage (apoptosis) and LCII/LCIII conversion (autophagy)” value (A375 melanoma cell line) was “induced both apoptosis and autophagy cellular deaths”.

`CCCCCCc1ccc(S(=O)(=O)Nc2cccc(-c3csc(NC(C)=O)n3)c2)cc1` [IIIa-1, N-(4-(3-((4-hexylphenyl)sulfonamido)phenyl)thiazol-2-yl)acetamide] was tested, and the “cell viability (percentage of cells alive relatively to DMSO)” value (A375 melanoma cells) was “very active”, the cell viability [1] was “strong activity” and the cell viability [2] was “strong activity”. The cell viability (sensitive K562 CML cells) was “viability decrease in the same range than the standard BCR-ABL inhibitor Imatinib”, the cell viability (resistant K562 cells) was “much more active” and the cell viability (BxPC3 (sensitive)) was “very high activity”. The cell viability [3] was “still very active”.

`CCCS(=O)(=O)Nc1ccc(F)c(C(=O)c2c[nH]c3ncc(-c4ccc(Cl)cc4)cc23)c1F` [PLX4032, reference compound] was tested, and the cell viability [2] was “looses most activity” and the “mechanism of death: PARP cleavage (apoptosis) and LCII/LCIII conversion (autophagy)” value (A375 melanoma cell line) was “only apoptosis is induced”.

`Nc1ccn([C@@H]2O[C@H](CO)[C@@H](O)C2(F)F)c(=O)n1` [Gemcitabine, reference compound] was tested, and the cell viability [3] was “inactive”.

For `CCCCCCCCc1ccc(S(=O)(=O)Nc2cccc(-c3csc(NC(C)=O)n3)c2)cc1` [IIIa-3, N-(4-(3-((4-octylphenyl)sulfonamido)phenyl)thiazol-2-yl)acetamide], the “cell viability (percentage of cells alive relatively to DMSO)” value (A375 melanoma cells) was “very active”, the cell viability [1] was “strong activity” and the cell viability [2] was “strong activity”. For the same compound, the cell viability (sensitive K562 CML cells) was “viability decrease in the same range than the standard BCR-ABL inhibitor Imatinib”, the cell viability (resistant K562 cells) was “much more active” and the cell viability (BxPC3 (sensitive)) was “very high activity”. For the same compound, the cell viability [3] was “still very active”.
